# In patent US12318380B2, “Treatment of demyelinating diseases” (priority 2018, dated 2025):
# Counter-ions that a name gives are not always drawn. Like-named read-outs stand apart in the source and are kept apart here.
# Legend:
# EAE model = settings: 10 mg/kg starting at the time of immunization; cited from earlier work
# [1] = molecular target: T1, kappa opioid receptor (KOR) (Mus musculus, UniProt P33534); assay: EAE with KOR antagonist norBNI; assay type: in vivo, female C57BL/6 mice
# T1 construct: from tissue; host or cells: whole animal: female C57BL/6 mice (EAE model)
# EAE-induced weight loss = assay type: in vivo, female C57BL/6 mice; settings: 0.3, 0.1 or 0.03 mg/kg i.p. daily from day 17
# [2] = test system: infiltrating immune cells (CD45high) in the brain; assay: Immune cell infiltration into the brain in EAE (flow cytometry); assay type: in vivo, female C57BL/6 mice
# [3] = test system: myelin in spinal cord of EAE mice; assay: TEM of spinal cord sections in EAE; assay type: in vivo, female C57BL/6 mice; settings: 0.03 mg/kg i.p. daily from day 17; day 45
# [4] = Weight change in cuprizone model of demyelination; assay type: in vivo, female C57BL/6 mice
# [5] = test system: cuprizone model of demyelination; assay: Rotarod assay in cuprizone model of demyelination; assay type: in vivo, female C57BL/6 mice; settings: 0.1 mg/kg i.p. daily from week 4
# [6] = test system: myelin in corpus callosum of cuprizone-treated mice; assay: TEM of corpus callosum in cuprizone model (g-ratio, myelinated axons, myelin area); assay type: in vivo, female C57BL/6 mice
# [7] = test system: myelin in spinal cord of EAE mice; assay: Luxol fast blue staining of spinal cord in EAE; assay type: in vivo, female C57BL/6 mice; settings: chronic phase
# [8] = test system: lymphocyte populations in the spleen; assay: Splenocyte flow cytometry in chronic phase of EAE; assay type: in vivo, female C57BL/6 mice; settings: 0.01 mg/kg i.p. daily from disease onset; 27 days post treatment initiation
# [9] = test system: leucocyte infiltration into the spinal cord; assay: H&E staining of spinal cord for leucocyte infiltration in EAE; assay type: in vivo, female C57BL/6 mice; settings: 0.01 mg/kg i.p. daily from disease onset; chronic phase
# [10] = test system: activated GFAP+ astrocytes in the spinal cord; assay: GFAP immunohistochemistry of spinal cord in EAE; assay type: in vivo, female C57BL/6 mice; settings: 0.01 mg/kg i.p. daily from day 17; day 45
# [11] = test system: cuprizone demyelination disease model of MS; assay: von Frey mechanical withdrawal threshold in cuprizone model; assay type: in vivo, female C57BL/6 mice; settings: 0.1 mg/kg/i.p. daily from day 28 or 35
# [12] = test system: Substance P induced scratch; settings: cited from earlier work
# Morphine induced scratch = settings: SC; Winfuran assessment report EMA/CHMP/138212/2014; cited from earlier work
# [13] = test system: Histamine induced scratch; settings: PO; Togashi et al. (2002); cited from earlier work
# itch = settings: in vivo; cited from earlier work
# [14] = norBNI 10 mg/kg i.p. weekly with nalfurafine 0.01 mg/kg i.p. daily
# [15] = 0.1 mg/kg/i.p. daily from day 28, day 70
# [16] = nalfurafine 0.1 mg/kg/i.p. or U-50488 1.6 mg/kg/i.p. daily from day 28, day 70
# T1 sequence (P33534 whole entry): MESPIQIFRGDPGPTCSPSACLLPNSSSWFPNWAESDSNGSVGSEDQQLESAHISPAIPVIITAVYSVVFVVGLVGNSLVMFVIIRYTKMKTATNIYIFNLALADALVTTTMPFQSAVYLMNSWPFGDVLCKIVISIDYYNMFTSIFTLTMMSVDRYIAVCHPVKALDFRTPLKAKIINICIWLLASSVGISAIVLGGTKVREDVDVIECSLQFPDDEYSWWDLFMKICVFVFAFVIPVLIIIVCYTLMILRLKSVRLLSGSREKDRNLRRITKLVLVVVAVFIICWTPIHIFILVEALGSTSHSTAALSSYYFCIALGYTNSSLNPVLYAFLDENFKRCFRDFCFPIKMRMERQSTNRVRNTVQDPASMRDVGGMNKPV
smiles,measurement,setting,value
CN1CCC[C@@H]1CCO[C@](C)(c1ccccc1)c1ccc(Cl)cc1 [clemastine fumarate],chronic disability in the EAE model,EAE model,has been shown to reduce chronic disability in the EAE model
Oc1ccc2c3c1O[C@H]1c4[nH]c5c(c4C[C@@]4(O)[C@@H](C2)N(CC2CC2)CC[C@]314)C[C@@]1(O)[C@H]2Cc3ccc(O)c4c3[C@@]1(CCN2CC1CC1)[C@H]5O4 [norBNI],"disease score, full recovery (score <0.5)",[1]; [14],abolishes the ability of nalfurafine to enable full recovery from paralysis
same,percentage recovered and number of days in recovery,[1]; [14],abolishes the ability of nalfurafine to enable and sustain recovery from paralysis
"CN(C(=O)/C=C/c1ccoc1)[C@@H]1CC[C@@]2(O)[C@H]3Cc4ccc(O)c5c4[C@@]2(CCN3CC2CC2)[C@H]1O5 [nalfurafine, (E)-N-[(4R,4aS,7R,7aR,12bS)-3-(cyclopropylmethyl)-4a,9-dihydroxy-1,2,4,5,6,7,7a,13-octahydro-4,12-methanobenzofuro[3,2-e]isoquinoline-7-yl]-3-(furan-3-yl)-N-methylprop-2-enamide]",% change in body weight,EAE-induced weight loss,mice recover from EAE-induced weight loss
same,number of infiltrating immune cells in brain (ratio to microglia),"[2]; 0.03 mg/kg i.p. daily from day 17, day 45",significantly reduced the number of infiltrating immune cells
same,number of infiltrating immune cells in brain (ratio to microglia),"[2]; 0.03 and 0.01 mg/kg i.p. daily from disease onset, chronic phase (>24 days)",significantly reduced the number of infiltrating immune cells
same,myelination of nerve axons in spinal cord (TEM),[3],nerve axons appear healthy and well-myelinated
same,% weight change,"[4]; 0.3% cuprizone 5 weeks, 0.1 mg/kg i.p. daily from week 4, 65 days (Example 7)",reversed significantly more effectively by administration of nalfurafine than vehicle alone
same,% weight change in recovery phase,"[4]; 0.3% cuprizone 35 days, nalfurafine 0.1 mg/kg or U-50488 1.6 mg/kg i.p. daily from day 28 (Example 28)",enhances recovery of the lost weight faster
same,rotarod performance at week 9 relative to week 5,[5],Cuprizone-induced disability was reversed
same,myelin in corpus callosum (TEM),"[6]; 0.1 mg/kg i.p. daily from week 4, day 65 (Example 9)","more myelin was detected, and the structure was less disorganized"
same,area of myelination,[6]; [15],percentage increase in area of myelination
same,number of myelinated axons,[6]; [15],percentage increase in the number of myelinated axons
same,"axonal-myelin ultrastructure, repair",[6]; [16],surprisingly similar to that of the naïve (normal) tissue
same,mean g-ratio,[6]; [16],0.75±0.15
same,lesion load and myelin density in ventral horn (luxol fast blue),[7]; 0.01 mg/kg i.p. daily from disease onset,reduces this lesion load and demyelination
same,% demyelination of spinal cord (luxol fast blue),[7]; 0.03 or 0.01 mg/kg i.p. daily from disease onset,significant reduction in the percentage of demyelination
same,Teff:cm ratio (effector to central memory CD4 T cells),[8],reduced ratio in the nalfurafine-treated compared to the vehicle-treated mice
same,overall number of CD4 T cells in spleen,[8],the same between nalfurafine and vehicle treated mice
same,proportion of major lymphocyte populations in spleen (% live leukocytes),[8],do not alter the proportion of the major lymphocyte populations in the spleen
same,disease reduction in the presence of norBNI,[1]; nalfurafine 0.01 mg/kg i.p. daily with norBNI 10 mg/kg i.p. weekly,effective at reducing disease independently of the KOR
same,"leucocyte infiltration score (0-3), H&E",[9],surprising reduction of infiltrating leucocytes
same,number of activated GFAP+ astrocytes per section,[10],significantly reduces the number of activated astrocytes
same,mechanical threshold scores vs vehicle,[11],improved mechanical threshold scores compared to vehicle treated mice
same,"mechanical withdrawal threshold, pre vs post treatment",[11],reduced to baseline levels
same,Complete Inhibition,"[12]; IV, Winfuran assessment report EMA/CHMP/138212/2014",7.5-10^ μg/kg
same,Inhibition printed in brackets beside the dose,"[12]; PO, 100 μg/kg, Winfuran assessment report EMA/CHMP/138212/2014",66%
same,Complete Inhibition,"[12]; PO, Togashi et al. (2002)",100 µg/kg
same,Complete Inhibition,"[12]; PO, Winfuran assessment report EMA/CHMP/138212/2014",100 µg/kg
same,Complete Inhibition,"[12]; SC, Winfuran assessment report EMA/CHMP/138212/2014",10 µg/kg
same,Complete Inhibition,Morphine induced scratch,5 to 10 µg/kg
same,ED50,[13],7.3 µg/kg
same,effective dose in humans for itch,itch,2.5 μg/body/day
